Here are results for two compounds from US8894993B2, “Mitochondria-targeted antioxidants” (Natreon Inc., priority 2006, dated 2014).

What all share (type): in vivo, Swiss albino mice
Series [1] deals with Catalase activity in liver. Kind of series: Catalase activity in liver of mice after restraint stress. As to conditions: 25 mg/Kg p.o. 7 days, control 3.9. Here is the method:
(§1) Swiss albino mice (20±2 g) were fed orally with—(a) 3-OH-DBP and (b) 3,8-(OH)2-DBP (each 25 mg/Kg b.w. per day, for 7 days). In case of the controls, only vehicle (0.8% carboxymethyl cellulose in water) was administered for seven days of the experiment. All the animals of all the groups were subjected to restraint stress (for 60 minutes) on the seventh day of the experiment, 2 hours after drug administration, according to a published method [Figueiredo, H. F., Bodie, B. L., Tauchi, M., Dolgas, C. M. and Herman, J. P. 2003. Endocrinology, 144, 5249-5258]. The model was selected in the present experiment, because restraint stress is a widely used model of acute oxidative stress. Immediately after being exposed to stress, the animals were sacrificed, blood was collected for analysis by HPLC of ATP and related nucleotides [Smolenska, Z., Kaznowska, Z., Zarowny, D., Simmonds, H. A. and Smolenski, R. T. 1999. […] AEC (adenylate energy charge) was calculated according to the method of Atkinson and Walton [Atkinson D E & Walton G M, Adenosine triphosphate conservation in metabolic regulation, J Biol Chem, 242 (1967) 3239] and TAN (total adenine nucleotides) was calculated according to an established method [Spencer M K & Katz A, Role of glycogen in control of glycolysis and IMP formation in human muscle during exercise, Am J Physiol, 260 (1991) E859]. […]

Series [2] deals with Blood levels of ATP and energy related indices. Description: Blood ATP and energy related indices in mice after forced swimming stress. Here is the method: Swiss albino mice (20±2 g) were fed orally with—(a) 3,8-(OH)2-DBP and (b) 3-OH-DBP (each 25 mg/Kg b.w.), per day, for 7 days. In case of the controls, only vehicle (0.8% carboxymethyl cellulose in water) was administered for seven days of the experiment. The animals were subjected to ‘forced swimming’ for 30 minutes on the 7th day of the experiment [Pliakas, A. M., Carlson, R. R., Neve, R. L., Konradi, C., Nestler, E. J. and Carlezon, W. A. 2001. J. Neurosci., 21(18), 7397-7403]. Immediately after the swimming, blood was collected from all the animals for analysis of ATP and related nucleotides by HPLC [Smolenska, Z., Kaznowska, Z., Zarowny, D., Simmonds, H. A. and Smolenski, R. T. 1999. Rheumatology, 38, 997-1002; Komarova, S. V., Mosharov, E. V., Vitvitsky, V. M. and Ataullakhanov, F. I. 1999. Blood Cell Mol. Dis., 25(13), 170-179; Marquardt, D. L., Gruber, H. E. and Wasserman, S. I. 1984. Proc. Natl. Acad. Sci., 81, 6192-6196]. AEC (adenylate energy charge) was calculated according to the method of Atkinson and Walton [Atkinson D E & Walton G M, Adenosine triphosphate conservation in metabolic regulation, J Biol Chem, 242 (1967) 3239] and TAN (total adenine nucleotides) was calculated according to an established method [Spencer M K & Katz A, Role of glycogen in control of glycolysis and IMP formation in human muscle during exercise, Am J Physiol, 260 (1991) E859].

The subject of series [3] is Superoxide dismutase (SOD) activity in liver. Kind of series: Superoxide dismutase activity in liver of mice after restraint stress. As to conditions: 25 mg/Kg p.o. 7 days, control 0.6. The protocol: as §1
Series [4] has as its system Blood levels of ATP and energy related indices. Description: Blood ATP and energy related indices in mice after restraint stress. The following applies: 25 mg/Kg p.o. 7 days. The protocol: Swiss albino mice (20±2 g) were fed orally with—(a) 3-OH-DBP and (b) 3,8-(OH)2-DBP (each 25 mg/Kg b.w. per day, for 7 days). In case of the controls, only vehicle (0.8% carboxymethyl cellulose in water) was administered for seven days of the experiment. All the animals of all the groups were subjected to restraint stress (for 60 minutes) on the seventh day of the experiment, 2 hours after drug administration, according to a published method [Figueiredo, H. F., Bodie, B. L., Tauchi, M., Dolgas, C. M. and Herman, J. P. 2003. Endocrinology, 144, 5249-5258]. The model was selected in the present experiment, because restraint stress is a widely used model of acute oxidative stress. Immediately after being exposed to stress, the animals were sacrificed, blood was collected for analysis by HPLC of ATP and related nucleotides [Smolenska, Z., Kaznowska, Z., Zarowny, D., Simmonds, H. A. and Smolenski, R. T. 1999. Rheumatology, 38, 997-1002; Komarova, S. V., Mosharov, E. V., Vitvitsky, V. M. and Ataullakhanov, F. I. 1999. Blood Cell Mol. Dis., 25(13), 170-179; Marquardt, D. L., Gruber, H. E. and Wasserman, S. I. 1984. Proc. Natl. Acad. Sci., 81, 6192-6196], and liver was collected for measurement of superoxide dismutase and catalase activities [Zielinski, S, and Pörtner, H. 2000. Comparative Biochem. Physiol. Part B, 125, 147-[60]. AEC (adenylate energy charge) was calculated according to the method of Atkinson and Walton [Atkinson D E & Walton G M, Adenosine triphosphate conservation in metabolic regulation, J Biol Chem, 242 (1967) 3239] and TAN (total adenine nucleotides) was calculated according to an established method [Spencer M K & Katz A, Role of glycogen in control of glycolysis and IMP formation in human muscle during exercise, Am J Physiol, 260 (1991) E859].

Series [5] has as its system stress-induced lipid peroxidation of mouse liver mitochondria. Description: Stress-induced lipid peroxidation of mouse liver mitochondria (thiobarbituric acid reaction). The following applies: oral each 5 mg/Kg b.w. per day for 5 days, hypoxic stress, control 0.495. The protocol:
(§2) Swiss albino mice (20±g) were fed orally with—(a) 3,8-(OH)2-DBP; (b) CoQ10; (c) a combination of 3,8-(OH)2-DBP and CoQ10 and (d) 3,8-(OH)2-DBP and CoQ10 in a clathrated form with fusoms (each 5 mg/Kg b.w.), per day, for 5 days. The animals were subjected to hypoxic stress for 1 hour each day for 3 days from the 3rd day of the experiment. After the stipulated time-period, brain and liver of the animals were collected and mitochondria from the liver were separated as described previously (Liu Y, Deng F, Zhao R and Qu S, Chemosphere, 40(8):851-854, 2000). Lipid peroxidation in brain and liver-mitochondria was estimated by the method of Ohkawa et al. (Ohkawa H, Ohishi N and Yagi K, Assay for lipid peroxides in animal tissues by thiobarbituric acid reaction. Anal. Biochem., 95:351-358, 1979).

In series [6] the test system is stress-induced lipid peroxidation of mouse brain. Kind of series: Stress-induced lipid peroxidation of mouse brain (thiobarbituric acid reaction). The following applies: oral each 5 mg/Kg b.w. per day for 5 days, hypoxic stress, control 1.169. The protocol: as §2
The nature of series [7]: Coenzyme Q in mice blood plasma and organs after oral feeding, HPLC. As to conditions: oral each 5 mg/Kg b.w. per day for 5 days. Here is the method:
One year old caged stressed Sprague-Dawley rats (250-270 gms) were fed the following, individually or in combination after suspension in 0.8% carboxymethyl cellulose: CoQ10 (5 mg/Kg b.w./day) and 3,8-(OH)2-DBP (5 mg/Kg b.w./day) for 5 days. Blood was collected by puncture of the retro-orbital plexus. The plasma was separated by centrifugation, extracted with methanol and subjected to HPLC. In another experiment, Swiss albino mice (20±2 g) were fed orally with—(a) 3,8-(OH)2-DBP; (b) CoQ10; (c) a combination of 3,8-(OH)2-DBP and CoQ10 and (d) 3,8-(OH)2-DBP and CoQ10 in a clathrated form with Shilajit-fusoms (each 5 mg/Kg b.w.), per day, for 5 days. The animals were subjected to hypoxic stress for 1 hour each day for 3 days from the 3rd day of the experiment. After the stipulated time-period, the content of CoQ10 and their conjugates with DBP were estimated in heart, kidney, liver (in wet weight basis) and in blood, by HPLC, after proper extraction from the tissues according to the procedure depicted in the literature (Rousseau, G and Varin, F, Determination of Ubiquinone-9 and 10 levels in rat tissues and blood by High Performance Liquid Chromatography with Ultraviolet detection. J. Chromat. Sci., 36(5): 247-252, 1998).
Column—RP C18 Xterra [250×4 mm]
Mobile phase—Methanol:Acetonitrile:Ethanol 30:30:40
Detection—PDA 275 nm for CoQ10
Bioavailability was more when CoQ10 and 3,8-(OH)2-DBP using the fulvic acid system. A systemic increment of CoQ10 was also observed in mice blood plasma and a few organs upon oral feeding of this formulation. The extent of the increment of CoQ10 was more when CoQ10 and 3,8-(OH)2-DBP were targeted to mitochondria using the fulvic acid delivery system (Table 5). A similar trend in the increment was also observed in the case of CoQ10-DBP conjugates when the fulvic acid system was used. […] Thus, concurrent supplementation of CoQ10 and 3,8-(OH)2-DBP [or 3-OH-DBP, which is systemically converted into 3,8-(OH)2-DBP] using a fulvic acid delivery system would efficiently perform their targeting to mitochondria. This can be regarded as effective therapeutic strategy against stress-induced oxidative damage of cells and DNA damage due to old-age.

For `O=c1oc2cc(O)ccc2c2ccccc12` [3-OH-DBP, 3-hydroxydibenzo-α-pyrone], the “Catalase activity in liver” value in series [1] was determined as 3.5 U/mg tissue. Also, in series [2] (albino mice engaged in forced swimming), the “content of ATP, AEC values and ATP/ADP ratio (in blood), in words” value is on record as “significantly improved”. Also, the ATP in series [2] (blood, forced swimming, 25 mg/Kg p.o. 7 days, mean ± SEM of 6, control 0.60 ± 0.01) is given as 0.72 ± 0.03 µM; in series [4] (mean ± SEM of 6, control 0.67 ± 0.03) it was 0.66 ± 0.04 µM. Moreover, the TAN was 0.90 ± 0.04 µM in series [2] (blood, forced swimming, 25 mg/Kg p.o. 7 days, mean ± SEM of 6, control 0.79 ± 0.01) and 0.79 ± 0.05 µM in series [4] (mean ± SEM of 6, control 0.76 ± 0.03). The AEC in series [2] (blood, forced swimming, 25 mg/Kg p.o. 7 days, mean ± SEM of 6, control 0.86 ± 0.003) was 0.89 ± 0.002; in series [4] (mean ± SEM of 6, control 0.89 ± 0.01), 0.90 ± 0.01. Further, the ATP/ADP ratio in series [2] (blood, forced swimming, 25 mg/Kg p.o. 7 days, mean ± SEM of 6, control 3.84 ± 0.09) was determined as 4.82 ± 0.09; in series [4] (mean ± SEM of 6, control 4.90 ± 0.32), 7.04 ± 0.38. For the same compound, the “SOD activity in liver” value in series [3] is reported as 0.91 U/gm tissue. The ADP in series [4] (mean ± SEM of 6, control 0.14 ± 0.02) was 0.09 ± 0.01 µM.

`COC1=C(OC)C(=O)C(C/C=C(\C)CC/C=C(\C)CC/C=C(\C)CC/C=C(\C)CC/C=C(\C)CC/C=C(\C)CC/C=C(\C)CC/C=C(\C)CC/C=C(\C)CCC=C(C)C)=C(C)C1=O` [CoQ10]: the “OD Values at 532 nm (lipid peroxidation)” value in series [5] came to 0.467. The “OD Values at 532 nm (lipid peroxidation)” value in series [6] was found to be 1.147. The concentration at 5 days in series [7] (Swiss albino, mouse, blood) amounted to 810 nM. Further, in series [7] (wet weight), the “Coenzyme Q: Heart” value is on record as 35.69 nmol/gm, the “Coenzyme Q: Kidney” value was 16.51 nmol/gm and the “Coenzyme Q: Liver” value was 19.41 nmol/gm.
